Experimental data taken from patent US9365588B2, “Benzoxazines as modulators of ion channels” (Vertex Pharmaceuticals Incorporated, priority 2011, dated 2016).

Biological target: human NaV 1.7 (Homo sapiens, UniProt Q15858)
Assay: E-VIPR optical membrane potential assay with electrical stimulation
Format: cell-based
Conditions: sodium channel inhibition; read-out: Binned Activity Data (IC50)
Procedure, shortened: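 Membrane-potential read-out: background-subtracted 460 nm/580 nm ratio during a 9 s current-controlled stimulus, 400 Hz scan. Before stimulation, NaV1.7-HEK cells carried coumarin/oxonol dye and compound (final DMSO 0.625%) for 20–35 min at room temperature; tetracaine 125 μM served as positive control.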

human NaV 1.7, sequence (Q15858 whole entry): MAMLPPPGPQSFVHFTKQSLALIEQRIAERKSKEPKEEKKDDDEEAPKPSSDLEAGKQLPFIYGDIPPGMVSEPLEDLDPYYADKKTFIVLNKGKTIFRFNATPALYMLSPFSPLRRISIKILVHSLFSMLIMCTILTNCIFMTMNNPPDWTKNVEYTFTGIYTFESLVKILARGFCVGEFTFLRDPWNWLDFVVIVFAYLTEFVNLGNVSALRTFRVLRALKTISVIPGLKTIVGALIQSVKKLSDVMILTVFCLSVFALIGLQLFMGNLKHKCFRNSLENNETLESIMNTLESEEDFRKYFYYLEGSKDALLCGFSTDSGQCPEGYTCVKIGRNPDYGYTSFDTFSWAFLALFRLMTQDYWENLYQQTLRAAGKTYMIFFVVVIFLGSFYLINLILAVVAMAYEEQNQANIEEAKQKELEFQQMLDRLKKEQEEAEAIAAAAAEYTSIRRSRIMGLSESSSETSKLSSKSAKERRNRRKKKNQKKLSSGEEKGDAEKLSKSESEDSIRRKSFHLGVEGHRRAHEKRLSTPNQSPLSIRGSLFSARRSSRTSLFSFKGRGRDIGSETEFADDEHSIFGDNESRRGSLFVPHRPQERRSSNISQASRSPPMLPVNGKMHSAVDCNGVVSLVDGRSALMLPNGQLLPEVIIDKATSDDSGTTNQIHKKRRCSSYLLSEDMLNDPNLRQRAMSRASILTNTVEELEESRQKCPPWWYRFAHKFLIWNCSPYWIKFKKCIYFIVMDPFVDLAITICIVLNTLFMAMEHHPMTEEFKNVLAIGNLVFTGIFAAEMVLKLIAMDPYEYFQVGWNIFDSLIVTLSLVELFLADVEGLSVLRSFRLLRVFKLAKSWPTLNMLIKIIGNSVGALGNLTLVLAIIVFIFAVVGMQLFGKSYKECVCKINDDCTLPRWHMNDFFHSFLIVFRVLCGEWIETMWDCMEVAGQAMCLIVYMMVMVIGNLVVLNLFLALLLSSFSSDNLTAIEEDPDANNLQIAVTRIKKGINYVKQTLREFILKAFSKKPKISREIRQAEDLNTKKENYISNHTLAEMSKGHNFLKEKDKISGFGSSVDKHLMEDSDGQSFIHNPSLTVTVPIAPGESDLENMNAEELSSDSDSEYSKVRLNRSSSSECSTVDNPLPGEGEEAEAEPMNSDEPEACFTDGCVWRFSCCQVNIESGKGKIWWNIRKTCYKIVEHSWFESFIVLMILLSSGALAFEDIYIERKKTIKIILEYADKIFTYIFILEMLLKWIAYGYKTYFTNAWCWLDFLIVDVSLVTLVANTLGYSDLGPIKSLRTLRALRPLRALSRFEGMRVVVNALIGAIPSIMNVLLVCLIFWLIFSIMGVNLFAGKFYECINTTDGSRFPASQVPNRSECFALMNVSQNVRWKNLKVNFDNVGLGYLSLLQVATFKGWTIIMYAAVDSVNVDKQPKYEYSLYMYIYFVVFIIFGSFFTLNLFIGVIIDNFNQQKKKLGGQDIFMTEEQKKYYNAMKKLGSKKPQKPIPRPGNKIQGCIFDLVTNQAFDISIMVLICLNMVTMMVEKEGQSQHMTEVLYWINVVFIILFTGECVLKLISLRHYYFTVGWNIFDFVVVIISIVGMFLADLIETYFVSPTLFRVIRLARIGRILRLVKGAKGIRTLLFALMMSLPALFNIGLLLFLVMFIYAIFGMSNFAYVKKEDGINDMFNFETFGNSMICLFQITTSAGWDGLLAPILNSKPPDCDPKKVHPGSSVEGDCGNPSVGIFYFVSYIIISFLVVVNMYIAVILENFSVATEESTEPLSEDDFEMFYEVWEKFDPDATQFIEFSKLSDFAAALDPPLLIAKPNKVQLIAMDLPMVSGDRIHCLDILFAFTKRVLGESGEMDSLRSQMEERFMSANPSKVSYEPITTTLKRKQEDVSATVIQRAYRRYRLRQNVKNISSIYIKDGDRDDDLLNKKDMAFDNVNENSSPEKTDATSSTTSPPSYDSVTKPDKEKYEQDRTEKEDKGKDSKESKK

Structure (SMILES) | IC50
Cn1ccc(C(=O)N2CCC3(CC2)Oc2cc(Cl)ccc2-n2cccc23)cc1=O [Compound 741] | 2000 to 5000 nM
CCn1ncc2c1-c1cc(F)ccc1OC21CCN(C(=O)c2ccc(OC(C)C)c(OC)c2)CC1 [Compound 742] | 2000 to 5000 nM
CC[C@H](C)Oc1ccc(C(=O)N2CCC3(CC2)Oc2ccccc2-n2cccc23)cc1C#N [Compound 744] | ≤ 2000 nM
Cc1cc(C(=O)N2CCC3(CC2)Oc2ccccc2-c2c3cnn2C)cc(C)c1OC(C)C [Compound 745] | ≤ 2000 nM
Cc1c(CO)cccc1C(=O)N1CCC2(CC1)Oc1ccccc1-c1c2cnn1C [Compound 746] | 2000 to 5000 nM
COc1cc(C(=O)N2CCC3(CC2)Oc2ccccc2-c2nn(C)cc23)cc(OC)c1OC [Compound 747] | > 5000 nM
COc1cccc(OC)c1C(=O)N1CCC2(CC1)Oc1ccccc1-c1c2cnn1C [Compound 748] | 2000 to 5000 nM
Cc1cc(C(=O)N2CCC3(CC2)Oc2ccccc2-c2c3cnn2C)ccc1C(C)(C)O [Compound 750] | ≤ 2000 nM
COc1cc(C(=O)N2CCC3(CC2)Oc2cc(Cl)ccc2-n2cccc23)ccc1OC[C@@H]1COC(C)(C)O1 [Compound 751] | ≤ 2000 nM
O=C(c1ccccc1OC(F)F)N1CCC2(CC1)Oc1ccccc1-c1nn(C(F)(F)F)cc12 [Compound 752] | ≤ 2000 nM
COc1cc(C(=O)N2CCC3(CC2)Oc2ccccc2-c2nn(C)cc23)ccc1C(C)(C)C [Compound 754] | > 5000 nM
COc1cc(C(=O)N2CCC3(CC2)Oc2ccccc2-n2c(C#N)ccc23)ccc1OCC(C)C [Compound 755] | ≤ 2000 nM
COc1cc(C(=O)N2CCC3(CC2)Oc2ccccc2-c2c3cnn2C)ccc1OC(C)(C)C#N [Compound 758] | ≤ 2000 nM
COc1cc(C(=O)N2CCC3(CC2)Oc2cc(Cl)ccc2-n2cccc23)ccc1OC[C@H]1COC(C)(C)O1 [Compound 759] | ≤ 2000 nM
COCCOc1ccc(C(=O)N2CCC3(CC2)Oc2ccccc2-c2c3cnn2C)cc1C [Compound 761] | ≤ 2000 nM
CC(C)(O)c1ccc(C(=O)N2CCC3(CC2)Oc2ccccc2-n2c(C#N)ccc23)cc1 [Compound 762] | ≤ 2000 nM
COc1cccc(F)c1C(=O)N1CCC2(CC1)Oc1ccccc1-c1c2cnn1C [Compound 763] | 2000 to 5000 nM
CCCOc1ccc(C(=O)N2CCC3(CC2)Oc2ccccc2-n2cccc23)cc1C [Compound 764] | ≤ 2000 nM
Cc1[nH]c2c(C(=O)N3CCC4(CC3)Oc3ccccc3-c3c4cnn3C)cccc2c1C [Compound 765] | ≤ 2000 nM
Cn1cc2c(n1)-c1ccccc1OC21CCN(C(=O)c2ccc(S(=O)(=O)NC3CC3)cc2)CC1 [Compound 767] | ≤ 2000 nM
COc1cc(C(=O)N2CCC3(CC2)Oc2ccccc2-n2c3ccc2S(C)(=O)=O)ccc1OC(C)C [Compound 768] | ≤ 2000 nM
CCOc1c(F)cccc1C(=O)N1CCC2(CC1)Oc1ccccc1-n1c(C#N)ccc12 [Compound 769] | ≤ 2000 nM
CC(C)Oc1cccc(C(=O)N2CCC3(CC2)Oc2ccccc2-n2c(C#N)ccc23)c1F [Compound 770] | ≤ 2000 nM
Cn1ncc2c1-c1ccccc1OC21CCN(C(=O)c2ccccc2OCCO)CC1 [Compound 771] | ≤ 2000 nM
COc1cc(C(=O)N2CCC3(CC2)Oc2cc(F)ccc2-n2cccc23)ccc1OCC(N)=O [Compound 772] | ≤ 2000 nM

Structure (SMILES) | IC50
Cc1ccc(C(=O)N2CCC3(CC2)Oc2ccccc2-c2c3cnn2C)c(Cl)c1 [Compound 773] | ≤ 2000 nM
COc1ccc(C(=O)N2CCC3(CC2)Oc2ccccc2-c2c3cnn2C)c(C)c1 [Compound 774] | ≤ 2000 nM
O=C(c1ccc(OC2COC2)c(F)c1)N1CCC2(CC1)Oc1cc(Cl)ccc1-n1cccc12 [Compound 777] | ≤ 2000 nM
O=C(c1ccc(S(=O)(=O)C(F)F)cc1)N1CCC2(CC1)Oc1ccccc1-n1c(C(F)(F)F)ccc12 [Compound 778] | ≤ 2000 nM
CC(c1ccc(C(=O)N2CCC3(CC2)Oc2ccccc2-n2c(C#N)ccc23)cc1)S(C)(=O)=O (stereo not drawn) [Compound 781] | 2000 to 5000 nM
Cc1cc(S(C)(=O)=O)ccc1C(=O)N1CCC2(CC1)Oc1ccccc1-n1c(C#N)ccc12 [Compound 784] | ≤ 2000 nM
COc1cc(C(=O)N2CCC3(CC2)Oc2ccccc2-c2c3cnn2CC(F)(F)F)ccc1OCCC(C)C [Compound 785] | ≤ 2000 nM
CC(C)Oc1ccc(C(=O)N2CCC3(CC2)Oc2ccccc2-c2c3cnn2C)c(OC(C)C)c1 [Compound 788] | ≤ 2000 nM
N#Cc1ccc2n1-c1ccccc1OC21CCN(C(=O)c2ccc(OC[C@H](O)CO)cc2)CC1 [Compound 789] | > 5000 nM
O=C(c1ccccc1O)N1CCC2(CC1)Oc1cc(Cl)ccc1-n1cccc12 [Compound 790] | ≤ 2000 nM
COCCOc1ccc(C(=O)N2CCC3(CC2)Oc2ccccc2-n2cccc23)cc1OC [Compound 791] | ≤ 2000 nM
Cc1cc(C(=O)N2CCC3(CC2)Oc2cc(Cl)ccc2-n2cccc23)ccc1C(C)(C)O [Compound 792] | ≤ 2000 nM
Cc1ccc(C(=O)N2CCC3(CC2)Oc2ccccc2-n2c3ccc2S(C)(=O)=O)cc1Cl [Compound 793] | ≤ 2000 nM
O=C(c1ccc(S(=O)(=O)CCO)cc1)N1CCC2(CC1)Oc1ccccc1-n1c(C(F)(F)F)ccc12 [Compound 794] | > 5000 nM
Cc1cc(C(C)(C)O)ccc1C(=O)N1CCC2(CC1)Oc1ccc(F)cc1-c1nn(C)cc12 [Compound 796] | ≤ 2000 nM
Cc1cccc(C(=O)N2CCC3(CC2)Oc2ccccc2-c2c3cnn2C)c1C [Compound 797] | ≤ 2000 nM
COc1ccc(F)cc1C(=O)N1CCC2(CC1)Oc1cc(Cl)ccc1-n1c(C#N)ccc12 [Compound 799] | ≤ 2000 nM
COc1c(C)cc(C(=O)N2CCC3(CC2)Oc2ccccc2-c2c3cnn2C)cc1C [Compound 801] | ≤ 2000 nM
CC(C)S(=O)(=O)c1ccc(C(=O)N2CCC3(CC2)Oc2cc(F)ccc2-n2c(C(F)(F)F)ccc23)cc1 [Compound 804] | > 5000 nM
CCCOc1ccc(C(=O)N2CCC3(CC2)Oc2cccnc2-n2cccc23)cc1C(F)(F)F [Compound 805] | ≤ 2000 nM
N#Cc1ccc2n1-c1ccccc1OC21CCN(C(=O)c2ccc(F)cc2Cl)CC1 [Compound 807] | > 5000 nM
CS(=O)(=O)c1ccc(C(=O)N2CCC3(CC2)Oc2cc(Cl)ccc2-n2cccc23)c(Cl)c1 [Compound 808] | ≤ 2000 nM
CC(C)(CO)c1ccc(C(=O)N2CCC3(CC2)Oc2ccccc2-n2c(C#N)ccc23)cc1 [Compound 810] | ≤ 2000 nM
Cn1ncc2c1-c1ccccc1OC21CCN(C(=O)c2ccc(OC(F)F)cc2)CC1 [Compound 811] | > 5000 nM
CCCOc1ccc(C(=O)N2CCC3(CC2)Oc2cc(F)ccc2-n2cccc23)cc1OC [Compound 812] | ≤ 2000 nM

Structure (SMILES) | IC50
Cc1c(C(=O)N2CCC3(CC2)Oc2ccccc2-c2c3cnn2C)cnn1-c1ccc(F)cc1 [Compound 814] | > 5000 nM
O=C(c1ccc(C(O)C2CC2)cc1)N1CCC2(CC1)Oc1ccccc1-n1c(C(F)(F)F)ccc12 (stereo not drawn) [Compound 815] | ≤ 2000 nM
COC(C)(C)c1ccc(C(=O)N2CCC3(CC2)Oc2ccccc2-n2cccc23)cc1C [Compound 817] | ≤ 2000 nM
CCCOc1ccc(C(=O)N2CCC3(CC2)Oc2ccccc2-n2c(C)ccc23)cc1C(F)(F)F [Compound 818] | ≤ 2000 nM
COc1ccc(C(=O)N2CCC3(CC2)Oc2ccccc2-n2c3ccc2S(C)(=O)=O)cc1C(F)(F)F [Compound 819] | ≤ 2000 nM
COCCOc1ccc(C(=O)N2CCC3(CC2)Oc2ccccc2-n2c(C(C)=O)ccc23)cc1OC [Compound 820] | ≤ 2000 nM
CCS(=O)(=O)c1ccc(C(=O)N2CCC3(CC2)Oc2ccccc2-c2c3cnn2C)cc1C [Compound 821] | ≤ 2000 nM
COc1ccc2c(c1)-c1c(cnn1C)C1(CCN(C(=O)c3ccc(OC(C)C)c(C)c3)CC1)O2 [Compound 822] | ≤ 2000 nM
Cn1cc2c(n1)-c1ccccc1OC21CCN(C(=O)c2ccc(S(=O)(=O)NC(C)(C)C)cc2)CC1 [Compound 824] | ≤ 2000 nM
COc1ccc(C(=O)N2CCC3(CC2)Oc2ccccc2-n2c(C#N)ccc23)cc1C(F)(F)F [Compound 826] | ≤ 2000 nM
Cn1ncc2c1-c1ccccc1OC21CCN(C(=O)c2ccc(OC3CCCC3)cc2)CC1 [Compound 828] | ≤ 2000 nM
CC(C)Oc1ccc(C(=O)N2CCC3(CC2)Oc2ccccc2-c2nn(C)cc23)cn1 [Compound 830] | ≤ 2000 nM
COc1cccc(C(=O)N2CCC3(CC2)Oc2ccccc2-c2c3cnn2C)c1OC [Compound 831] | ≤ 2000 nM
COCc1ccc2c(c1)OC1(CCN(C(=O)c3ccc(S(=O)(=O)C(C)C)cc3)CC1)c1ccc(C#N)n1-2 [Compound 832] | > 5000 nM
CCc1ccccc1C(=O)N1CCC2(CC1)Oc1cc(Cl)ccc1-n1cccc12 [Compound 833] | ≤ 2000 nM
Cc1nc(C(=O)N2CCC3(CC2)Oc2ccccc2-c2c3cnn2C)ccc1OC(C)C [Compound 834] | ≤ 2000 nM
O=C(c1ccc(OCC2CCCO2)c(C(F)(F)F)c1)N1CCC2(CC1)Oc1ccccc1-n1cccc12 (stereo not drawn) [Compound 836] | ≤ 2000 nM
COc1cc(C(=O)N2CCC3(CC2)Oc2ccccc2-n2cccc23)ccc1O[C@H]1CCOC1 [Compound 837] | ≤ 2000 nM
Cc1cc(C(=O)N2CCC3(CC2)Oc2ccccc2-c2c3cnn2C)ccc1OC(F)(F)F [Compound 838] | 2000 to 5000 nM
CCc1ccc(C(=O)N2CCC3(CC2)Oc2ccccc2-n2c(C#N)ccc23)cc1OC [Compound 839] | ≤ 2000 nM
O=C(c1ccc(S(=O)(=O)C2CCOC2)cc1)N1CCC2(CC1)Oc1ccccc1-n1c(C(F)(F)F)ccc12 (stereo not drawn) [Compound 840] | ≤ 2000 nM
Cn1ncc2c1-c1ccccc1OC21CCN(C(=O)c2cccc3c2OCCC3)CC1 [Compound 841] | ≤ 2000 nM
Cn1ncc2c1-c1ccccc1OC21CCN(C(=O)c2ccc3nc(Cl)sc3c2)CC1 [Compound 842] | > 5000 nM
Cn1cc2c(n1)-c1ccccc1OC21CCN(C(=O)c2ccc3nc(Cl)sc3c2)CC1 [Compound 843] | 2000 to 5000 nM
CC(C)(C)NS(=O)(=O)c1ccc(C(=O)N2CCC3(CC2)Oc2ccccc2-n2c(C#N)ccc23)cc1 [Compound 844] | ≤ 2000 nM
